Laboratory results: patent US10472346B2, “Potent gamma-secretase modulators” (The General Hospital Coporation, priority 2014, dated 2019)

Test system: Aβ42
Experiment: Aβ42 IC50 assay (SHSYSY-APP cell-based screening, UCSD sandwich Aβ42 ELISA)
Excerpt: FIG. 8: Representative concentration response curves of Compound 1 using our primary and orthogonal medium throughput SHSYSY-APP cell-based screening assays (10). Compounds are first screened two times in triplicate in our UCSD sandwich Aβ42 ELISA on sequential days and the average of the two assays must be within 3-fold of each other before being entered into the CDD relational database. The UCSD sandwich ELISA assay can easily handle 20 compounds per week. Compounds with Aβ42 IC50 values <100 nM continue through the testing funnel. The Z′ score and the % CV for the UCSD Aβ42 sandwich ELISA assay are 0.8 and 4, respectively. For the Meso Scale triplex assay the Z′ scores are 0.7, 0.9 and 0.6 Aβ42, Aβ40 and Aβ38, respectively and the % CV's are 7, 2 and 1 for Aβ42, Aβ40 and Aβ38, respectively. Aβ total peptides are measured using a sandwich ELISA.
Tabular Results of A1142 Assays Conducted on Compounds of Examples 5-102. Assays are Aβ42 IC50 (nM).

SMILES | IC50 [nM]
COc1nc(-c2cc(C)c(NC(C)Cc3ccc(F)cc3)nn2)ccc1-n1cnc(C)c1 (racemic) [Example 54, (+/−)—N-(1-(4-fluorophenyl)propan-2-yl)-6-(6-methoxy-5-(4-methyl-1H-imidazol-1-yl)pyridin-2-yl)-4-methylpyridazin-3-amine] | 29
COc1nc(-c2cc(C)c(NC(C)c3nc4ccccc4o3)nn2)ccc1-n1cnc(C)c1 (racemic) [Example 74, (+/−)—N-(1-(benzo[d]oxazol-2-yl)ethyl)-6-(6-methoxy-5-(4-methyl-1H-imidazol-1-yl)pyridin-2-yl)-4-methylpyridazin-3-amine] | 42
CCc1cc(-c2ccc(-n3cnc(C)c3)c(OC)n2)nnc1NCc1ccc(F)cc1 [Example 8, 4-ethyl-N-(4-fluorobenzyl)-6-(6-methoxy-5-(4-methyl-1H-imidazol-1-yl)pyridin-2-yl)pyridazin-3-amine] | 33
CCc1cc(-c2ccc(-n3cnc(C)c3)c(OC)n2)nnc1N[C@H](C)c1ccccc1 [Example 9, (R)-4-ethyl-6-(6-methoxy-5-(4-methyl-1H-imidazol-1-yl)pyridin-2-yl)-N-(1-phenylethyl)pyridazin-3-amine] | 46
CCc1cc(-c2ccc(-n3cnc(C)c3)c(OC)n2)nnc1N[C@H](C)c1ccc(F)cc1 [Example 10, (R)-4-ethyl-N-(1-(4-fluorophenyl)ethyl)-6-(6-methoxy-5-(4-methyl-1H-imidazol-1-yl)pyridin-2-yl)pyridazin-3-amine] | 47.5
COc1nc(-c2nnc(N[C@@H](C)c3ccc(F)cc3)c(C)c2C)ccc1-n1cnc(C)c1 [Example 15, (S)—N-(1-(4-Fluorophenyl)ethyl)-6-(6-methoxy-5-(4-methyl-1H-imidazol-1-yl)pyridin-2-yl)-4,5-dimethylpyridazin-3-amine] | 67
COc1nc(-c2nnc(N[C@@H](C)c3ccccc3)c(C)c2C)ccc1-n1cnc(C)c1 [Example 17, (S)-6-(6-methoxy-5-(4-methyl-1H-imidazol-1-yl)pyridin-2-yl)-4,5-dimethyl-N-(1-phenylethyl)pyridazin-3-amine] | 37
COc1nc(-c2nnc(NCc3ccc(F)cc3)c(C)c2C)ccc1-n1cnc(C)c1 [Example 18, N-(4-fluorobenzyl)-6-(6-methoxy-5-(4-methyl-1H-imidazol-1-yl)pyridin-2-yl)-4,5-dimethylpyridazin-3-amine] | 82
COc1nc(-c2cc(C)c(N(C)[C@@H](C)c3ccc(F)cc3)nn2)ccc1-n1cnc(C)c1 [Example 19, (S)—N-(1-(4-fluorophenyl)ethyl)-6-(6-methoxy-5-(4-methyl-1H-imidazol-1-yl)pyridin-2-yl)-N,4-dimethylpyridazin-3-amine] | 240
CCN(c1nnc(-c2ccc(-n3cnc(C)c3)c(OC)n2)cc1C)[C@@H](C)c1ccc(F)cc1 [Example 20, (S)—N-ethyl-N-(1-(4-fluorophenyl)ethyl)-6-(6-methoxy-5-(4-methyl-1H-imidazol-1-yl)pyridin-2-yl)-4-methylpyridazin-3-amine] | 132
CC[C@@H](c1ccc(F)cc1)N(C)c1nnc(-c2ccc(-n3cnc(C)c3)c(OC)n2)cc1C [Example 21, (S)—N-(1-(4-fluorophenyl)propyl)-6-(6-methoxy-5-(4-methyl-1H-imidazol-1-yl)pyridin-2-yl)-N,4-dimethylpyridazin-3-amine] | 61
COc1nc(-c2ccc(N[C@@H](C)c3ccccc3)nn2)ccc1-n1cnc(C)c1 [Example 22, (S)-6-(6-methoxy-5-(4-methyl-1H-imidazol-1-yl)pyridin-2-yl)-N-(1-phenylethyl)pyridazin-3-amine] | 16
COc1nc(-c2ccc(NC(C)(C)c3ccc(F)cc3)nn2)ccc1-n1cnc(C)c1 [Example 23, N-(2-(4-Fluorophenyl)propan-2-yl)-6-(6-methoxy-5-(4-methyl-1H-imidazol-1-yl)pyridin-2-yl)pyridazin-3-amine] | 22
COc1nc(-c2nnc(N[C@@H](C)c3ccc(F)cc3)cc2C)ccc1-n1cnc(C)c1 [Example 27, (S)—N-(1-(4-fluorophenyl)ethyl)-6-(6-methoxy-5-(4-methyl-1H-imidazol-1-yl)pyridin-2-yl)-5-methylpyridazin-3-amine] | 21
COc1nc(-c2nnc(N[C@@H](C)c3ccc(F)cc3)c3c2CCC3)ccc1-n1cnc(C)c1 [Example 29, (S)—N-(1-(4-Fluorophenyl)ethyl)-4-(6-methoxy-5-(4-methyl-1H-imidazol-1-yl)pyridin-2-yl)-6,7-dihydro-5H-cyclopenta[d]pyridazin-1-amine] | 12.8
COc1nc(-c2cc(C)c(N[C@@H](C)c3ccccc3)nn2)ccc1-n1cnc(C)c1 [Example 35, (S)-6-(6-methoxy-5-(4-methyl-1H-imidazol-1-yl)pyridin-2-yl)-4-methyl-N-(1-phenylethyl)pyridazin-3-amine] | 12
COc1ccccc1[C@H](C)Nc1nnc(-c2ccc(-n3cnc(C)c3)c(OC)n2)cc1C [Example 41, (S)-6-(6-methoxy-5-(4-methyl-1H-imidazol-1-yl)pyridin-2-yl)-N-(1-(2-methoxyphenyl)ethyl)-4-methylpyridazin-3-amine] | 17.5

Stronger by IC50, values ahead:

IC50 [nM] | SMILES
7.8 | CCc1cc(-c2ccc(-n3cnc(C)c3)c(OC)n2)nnc1N[C@@H](C)c1ccc(F)cc1 [Example 5, (S)-4-Ethyl-N-(1-(4-fluorophenyl)ethyl)-6-(6-methoxy-5-(4-methyl-1H-imidazol-1-yl)pyridin-2-yl)pyridazin-3-amine]
5.5 | CCc1cc(-c2ccc(-n3cnc(C)c3)c(OC)n2)nnc1N[C@@H](C)c1ccccc1 [Example 7, (S)-4-ethyl-6-(6-methoxy-5-(4-methyl-1H-imidazol-1-yl)pyridin-2-yl)-N-(1-phenylethyl)pyridazin-3-amine]
7.5 | COc1nc(-c2cc(C(C)C)c(N[C@@H](C)c3ccc(F)cc3)nn2)ccc1-n1cnc(C)c1 [Example 11, (S)—N-(1-(4-fluorophenyl)ethyl)-4-isopropyl-6-(6-methoxy-5-(4-methyl-1H-imidazol-1-yl)pyridin-2-yl)pyridazin-3-amine]
7.2 | COc1nc(-c2cc(C(C)C)c(N[C@@H](C)c3ccccc3)nn2)ccc1-n1cnc(C)c1 [Example 14, (S)-4-isopropyl-6-(6-methoxy-5-(4-methyl-1H-imidazol-1-yl)pyridin-2-yl)-N-(1-phenylethyl)pyridazin-3-amine]
5.8 | COc1nc(-c2cc(C)c(N[C@@H](C)c3ccc(Cl)cc3)nn2)ccc1-n1cnc(C)c1 [Example 31, (S)—N-(1-(4-chlorophenyl)ethyl)-6-(6-methoxy-5-(4-methyl-1H-imidazol-1-yl)pyridin-2-yl)-4-methylpyridazin-3-amine]
6.8 | COc1nc(-c2cc(C)c(N[C@@H](C)c3cccc(Cl)c3)nn2)ccc1-n1cnc(C)c1 [Example 33, (S)—N-(1-(3-chlorophenyl)ethyl)-6-(6-methoxy-5-(4-methyl-1H-imidazol-1-yl)pyridin-2-yl)-4-methylpyridazin-3-amine]
6.5 | COc1ccc([C@H](C)Nc2nnc(-c3ccc(-n4cnc(C)c4)c(OC)n3)cc2C)cc1 [Example 36, (S)-6-(6-methoxy-5-(4-methyl-1H-imidazol-1-yl)pyridin-2-yl)-N-(1-(4-methoxyphenyl)ethyl)-4-methylpyridazin-3-amine]
6.3 | COc1nc(-c2cc(C)c(N[C@@H](C)c3ccc(C(F)(F)F)cc3)nn2)ccc1-n1cnc(C)c1 [Example 37, (S)-6-(6-methoxy-5-(4-methyl-1H-imidazol-1-yl)pyridin-2-yl)-4-methyl-N-(1-(4-(trifluoromethyl)phenyl)ethyl)pyridazin-3-amine]
7 | COc1nc(-c2cc(C)c(N[C@@H](C)c3cccc(F)c3)nn2)ccc1-n1cnc(C)c1 [Example 38, (S)—N-(1-(3-fluorophenyl)ethyl)-6-(6-methoxy-5-(4-methyl-1H-imidazol-1-yl)pyridin-2-yl)-4-methylpyridazin-3-amine]
6.5 | COc1nc(-c2cc(C)c(N[C@@H](C)c3ccc(F)c(F)c3)nn2)ccc1-n1cnc(C)c1 [Example 39, (S)—N-(1-(3,4-difluorophenyl)ethyl)-6-(6-methoxy-5-(4-methyl-1H-imidazol-1-yl)pyridin-2-yl)-4-methylpyridazin-3-amine]
6.5 | CC[C@H](Nc1nnc(-c2ccc(-n3cnc(C)c3)c(OC)n2)cc1C)c1ccc(F)cc1 [Example 40, (S)—N-(1-(4-fluorophenyl)propyl)-6-(6-methoxy-5-(4-methyl-1H-imidazol-1-yl)pyridin-2-yl)-4-methylpyridazin-3-amine]
7.5 | COc1nc(-c2cc(C)c(N[C@@H](C)c3ccc(C)cc3)nn2)ccc1-n1cnc(C)c1 [Example 42, (S)-6-(6-methoxy-5-(4-methyl-1H-imidazol-1-yl)pyridin-2-yl)-4-methyl-N-(1-(p-tolyl)ethyl)pyridazin-3-amine]
7.5 | COc1nc(-c2cc(C)c(N[C@@H](C)c3cc(C(F)(F)F)cc(C(F)(F)F)c3)nn2)ccc1-n1cnc(C)c1 [Example 43, (S)—N-(1-(3,5-bis(trifluoromethyl)phenyl)ethyl)-6-(6-methoxy-5-(4-methyl-1H-imidazol-1-yl)pyridin-2-yl)-4-methylpyridazin-3-amine]
10.5 | COc1cccc([C@H](C)Nc2nnc(-c3ccc(-n4cnc(C)c4)c(OC)n3)cc2C)c1 [Example 44, (S)-6-(6-methoxy-5-(4-methyl-1H-imidazol-1-yl)pyridin-2-yl)-N-(1-(3-methoxyphenyl)ethyl)-4-methylpyridazin-3-amine]
